Test: in vitro
Conditions: human, hela cells, % viability
For CC1(C)CC(=O)c2sc(NC(=O)c3ccccc3)nc2C1 [CBK287318], the viability at 28.5 h, 10 µM was 85.6%.
Work on O=C(Cc1ccccc1)Nc1ncc(Cc2ccccc2)s1 [CBK287322] yielded a viability at 28.5 h, 10 µM of 95.6%.
In the case of O=C(CSc1nnc2ccccn12)Nc1ccccc1 [CBK287328], the viability at 28.5 h, 10 µM is reported as 109%.
CC(=O)Nc1nnc(-c2ccc(Cl)cc2)s1 [CBK287331] gave a viability at 28.5 h, 10 µM of 94.4%.
In the case of CC(=O)c1sc(NC(=O)c2ccc(N3C(=O)CCC3=O)cc2)nc1C [CBK287334], the viability at 28.5 h, 10 µM is reported as 86.5%.
CC(=O)Nc1nc2ccc(S(C)(=O)=O)cc2s1 [CBK287336] showed a viability at 28.5 h, 10 µM of 110%.
In the case of CS(=O)(=O)c1ccc2nc(NC(=O)c3cccs3)sc2c1 [CBK287340], the viability at 28.5 h, 10 µM is reported as 92.6%.
In the case of O=C(CN1C(=O)c2ccccc2C1=O)Nc1nc(-c2ccccc2)cs1 [CBK287343], the viability at 28.5 h, 10 µM is reported as 106%.
For O=C(CN1C(=O)CCC1=O)Nc1nc2ccccc2s1 [CBK287345], the viability at 28.5 h, 10 µM was 97.7%.
C=CCNC(=O)CSc1nc2sc(C)c(C)c2c(=O)[nH]1 [CBK287350] gave a viability at 28.5 h, 10 µM of 88.2%.
In the case of COc1ccc2nc(NC(=O)c3cccc(N4C(=O)CCC4=O)c3)sc2c1 [CBK287351], the viability at 28.5 h, 10 µM is reported as 108%.
COc1ccc(C2C(C(=O)Nc3ccccc3)=C(C)Nc3ncnn32)cc1 (centres unmarked) [CBK287353] showed a viability at 28.5 h, 10 µM of 103%.
Clc1ccc(-n2ncc3c(NCc4ccccc4)ncnc32)cc1 [CBK287355] gave a viability at 28.5 h, 10 µM of 95.1%.
Cc1nnc(NC(=O)c2ccc3c(c2)OCO3)s1 [CBK287358] gave a viability at 28.5 h, 10 µM of 104%.
Molecule COc1ccc(CC(=O)Nc2nnc(C)s2)cc1OC [CBK287359] has a viability at 28.5 h, 10 µM of 113%.
Cc1nnc(NC(=O)Cc2ccc(F)cc2)s1 [CBK287360] showed a viability at 28.5 h, 10 µM of 103%.
For COc1ccc2nc(NC(=O)c3ccc4ncsc4c3)sc2c1 [CBK287364], the viability at 28.5 h, 10 µM was 94.8%.
For COc1cccc2sc(NC(=O)c3ccc4ncsc4c3)nc12 [CBK287365], the viability at 28.5 h, 10 µM was 98.5%.
Cc1ccc2nc(NC(=O)C3COc4ccccc4O3)sc2c1 (centres unmarked) [CBK287366] showed a viability at 28.5 h, 10 µM of 103%.
COc1ccc(NC(=O)c2ccc3ncsc3c2)cc1 [CBK287368] gave a viability at 28.5 h, 10 µM of 107%.
In the case of O=C(NCc1ccccc1)c1cnc2n(c1=O)CCS2 [CBK287371], the viability at 28.5 h, 10 µM is reported as 79.7%.
For CC(NC(=O)c1cnc2n(c1=O)CCS2)c1ccccc1 (centres unmarked) [CBK287372], the viability at 28.5 h, 10 µM was 103%.
O=C(NCCC1=CCCCC1)c1cnc2n(c1=O)CCS2 [CBK287373] showed a viability at 28.5 h, 10 µM of 89.8%.
With Cc1cccc(NC(=O)c2cnc3n(c2=O)CCS3)c1 [CBK287375] the viability at 28.5 h, 10 µM was 108%.
O=C(Nc1ccc(Oc2ccccc2)cc1)c1cnc2n(c1=O)CCS2 [CBK287377] gave a viability at 28.5 h, 10 µM of 95.1%.
In the case of O=C(Nc1ccc(OCc2ccccc2)cc1)c1cnc2n(c1=O)CCS2 [CBK287378], the viability at 28.5 h, 10 µM is reported as 91.3%.
O=C(Nc1cccc(Cl)c1Cl)c1cnc2n(c1=O)CCS2 [CBK287380] gave a viability at 28.5 h, 10 µM of 95.1%.
With O=C(Nc1ccc(F)cc1Cl)c1cnc2n(c1=O)CCS2 [CBK287382] the viability at 28.5 h, 10 µM was 104%.
Work on COc1ccc(C)cc1NC(=O)c1cnc2n(c1=O)CCS2 [CBK287383] yielded a viability at 28.5 h, 10 µM of 108%.
For COc1ccc(Cc2nnc(Nc3ccc(OC)cc3)[nH]c2=O)cc1 [CBK287385], the viability at 28.5 h, 10 µM was 92.9%.
Work on Brc1ccc(Nc2ncnc3nc[nH]c23)cc1 [CBK287386] yielded a viability at 28.5 h, 10 µM of 105%.
For COc1ccc(NC(=O)CSc2ncnc3c2oc2ccccc23)c(OC)c1 [CBK287395], the viability at 28.5 h, 10 µM was 87%.
O=C(CSc1ncnc2c1oc1ccccc12)NC1CCCCC1 [CBK287396] gave a viability at 28.5 h, 10 µM of 95.4%.
O=C(CSc1ncnc2c1oc1ccccc12)NCc1ccccc1 [CBK287397] showed a viability at 28.5 h, 10 µM of 101%.
Work on COc1ccc(C)c2sc(NC(=O)c3sc(C)nc3C)nc12 [CBK287401] yielded a viability at 28.5 h, 10 µM of 74%.
With O=C(Nc1nnc(-c2ccc3c(c2)OCCO3)o1)c1cccc(F)c1 [CBK287402] the viability at 28.5 h, 10 µM was 101%.
Molecule O=C(Nc1nnc(-c2ccc3c(c2)OCCO3)o1)c1ccccc1F [CBK287405] has a viability at 28.5 h, 10 µM of 112%.
With Cc1cccc(C(=O)Nc2nnc(C3=COCCO3)o2)c1 [CBK287406] the viability at 28.5 h, 10 µM was 94%.
